Experimental data taken from the NIST ThermoML archive (doi:10.1016/j.jct.2006.03.009).
Numbers after ± are expanded uncertainties.

Experiment: cn = amount concentration of the nth substance listed, in mol/dm3
Conditions: Liquid; for mass density: 7 kPa, Pycnometric method; for speed of sound: 101 kPa

[Cl-].[K+] [potassium chloride] + O
c1 = 1.5
Conditions	mass density [kg/m3]	speed of sound [m/s]
303.15 K	1061.4 ± 0.4	1584 ± 3.3
308.15 K	1059.7 ± 0.5	1590.4 ± 3.3
313.15 K	1057.8 ± 0.5	1595.8 ± 3.4
318.15 K	1055.6 ± 0.5	1601.6 ± 3.4
323.15 K	1053.3 ± 0.5	1606.2 ± 3.4

O=[N+]([O-])[O-].[K+] [potassium nitrate] + O
c1 = 1
Conditions	mass density [kg/m3]	speed of sound [m/s]
303.15 K	1052.9 ± 0.4	1541.8 ± 3.3
308.15 K	1051.1 ± 0.4	1550.2 ± 3.3
313.15 K	1049 ± 0.5	1557.4 ± 3.3
318.15 K	1046.7 ± 0.5	1563.6 ± 3.3
323.15 K	1044.2 ± 0.5	1568.4 ± 3.3

O=S(=O)([O-])[O-].[K+].[K+] [potassium sulfate] + O
c1 = 0.5
Conditions	mass density [kg/m3]	speed of sound [m/s]
303.15 K	1059.3 ± 0.4	1571.2 ± 3.3
308.15 K	1057.9 ± 0.5	1578.8 ± 3.3
313.15 K	1056.1 ± 0.5	1587.6 ± 3.3
318.15 K	1054.2 ± 0.5	1592.6 ± 3.3
323.15 K	1051.9 ± 0.5	1597.6 ± 3.4
